Measured values from patent publication US20160159774A1 (Celgene Avilomics Research, Inc., priority 2014, published 2016).

How the values were obtained:
[1] = target: T1, BTK in Ramos human Burkitt lymphoma cells (Homo sapiens, UniProt Q06187); assay: BTK Ramos cellular assay (BTK occupancy); type: cell-based; settings: concentration producing 50% occupancy of BTK, 1 hour incubation with compound
T1 construct: Compounds of this invention were assayed in Ramos human Burkitt lymphoma cells; endogenous in cells; host or cells: Ramos human Burkitt lymphoma cells
Description: BTK activity in Ramos cells, in the presence of a compound of the invention, can be measured by 3 different methods: 1) inhibition of autophosphorylation of BTK; 2) inhibition of phosphorylation of the immediate BTK surrogate PLCγ2; and 3) BTK occupancy. […] In this instance, BTK occupancy was chosen and is described below.
Compounds of this invention were assayed in Ramos human Burkitt lymphoma cells. Ramos cells were grown in suspension in T175 flasks, spun down, resuspended to a concentration of 2×10^6 cells per mL in serum-free media and incubated for 1 hour. Compound was added to Ramos cells to a final concentration of 500, 166.7, 55.6, 18.5, 6.2, 2.1, and 0.7 nM. Ramos cells were incubated with compound for 1 hour, washed with PBS and lysed in 1004 of BioRad lysis Buffer. Cell lysates were incubated with a biotinylated covalent probe (compound 1-215 disclosed in U.S. published application number 2010/0029610, incorporated by reference in its entirety) at a final concentration of 1 μM in a PBS, 0.05% Tween-20, 1% BSA solution for 1 h at room temperature. Standards and samples were transferred to a streptavidin-coated 96-well ELISA plate and mixed while shaking for 1 h at room temperature. The α-Btk antibody (BD 611116, 1:1000 dilution in PBS+0.05% Tween-20+0.5% BSA) was then added and incubated for 1 h at room temperature. After wash, goat α-mouse-HRP (1:5000 dilution in PBS+0.05% Tween-20+0.5% BSA) was added and incubated for 1 h at room temperature. The ELISA was developed with addition of tetramethyl benzidine (TMB) followed by Stop Solution and read at OD 450 nm. The standard curve (11.7-3000 pg/μL) was generated with human full-length recombinant Btk protein and plotted using a 4 parameter curve fit in Gen5 software. Uninhibited Btk detected from samples was normalized to μg total protein as determined by BCA protein analysis (Pierce Cat. 23225).
The results of this assay show the concentration of compound producing 50% occupancy of BTK. This level of occupancy empirically translates to a level of 50% inhibition of BTK activity (both as measured by autophosphorylation and by phosphorylation of PLCγ2). […] The compound numbers correspond to the compound numbers in the examples.

activated BTK enzyme = target: T2, activated BTK enzyme (Homo sapiens, UniProt Q06187); assay: Omnia assay for potency assessment against BTK; type: biochemical; settings: BTK inhibition assay; [BTK]=5 nM, [ATP]=40 μM, [Y5-Sox]=10 μM
T2 construct: purchased Life Technologies PV3363
Excerpt: Omnia Assay Protocol for Potency Assessment Against BTK
The protocol below describes an assay to measure potency of compounds against the activated BTK enzyme. The mechanics of the assay platform are best described by the vendor (Life Technologies, Carlsbad, Calif.) on their website at the following URLs: www.lifetechnologies.com/us/en/home/life-science/drug-discovery/target-and-lead-identification-and-validation/kinasebiology/kinase-activity-assays/omnia-kinase-assays/omnia-kinase-principle.html and tools.lifetechnologies.com/content/sfs/manuals/omnia_kinase_assay_man.pdf
Briefly, 10× stocks of BTK (PV3363) from Life Technologies, 1.13×ATP (AS00lA) and Sox conjugated peptide substrates, Y5-Sox, (KZN305l) were prepared in 1× kinase reaction buffer consisting of 20 mM Tris, pH 7.5, 5 mM MgCl2, 1 mM EGTA, 5 mM (3-glycerophosphate, 5% glycerol (10× stock, KB002A) and 0.2 mM DTT (DS00lA). 5 μL of each enzyme were pre-incubated in a Corning (#3574) 384-well, white, non-binding surface microtiter plate (Corning, N.Y.) for 30 min. at room temperature with a 0.5 μL volume of 50% DMSO or serially diluted compounds prepared in 50% DMSO. Kinase reactions were started with the addition of […] of the ATP/Tyr-Sox peptide substrate Y5 mix and monitored every 71 seconds for 60 minutes at λex360/λem485 in a Synergy4 plate reader from BioTek (Winooski, Vt.). At the conclusion of each assay, progress curves from each well were examined for linear reaction kinetics and fit statistics (R2, 95% confidence interval, absolute sum of squares). Initial velocity (0 minutes to ˜30 minutes) from each reaction was determined from the slope of a plot of relative fluorescence units vs time (minutes) and then plotted against inhibitor concentration to estimate IC50 from log [Inhibitor] vs Response, Variable Slope model in GraphPad Prism from GraphPad Software (San Diego, Calif.).
Reagent conditions for the assay are:
[BTK]=5 nM, [ATP]=40 μM, [Y5-Sox]=10 μM (ATP KMapp˜36 μM).
The compound numbers correspond to the compound numbers in the examples.

T2 sequence (Q06187 whole entry): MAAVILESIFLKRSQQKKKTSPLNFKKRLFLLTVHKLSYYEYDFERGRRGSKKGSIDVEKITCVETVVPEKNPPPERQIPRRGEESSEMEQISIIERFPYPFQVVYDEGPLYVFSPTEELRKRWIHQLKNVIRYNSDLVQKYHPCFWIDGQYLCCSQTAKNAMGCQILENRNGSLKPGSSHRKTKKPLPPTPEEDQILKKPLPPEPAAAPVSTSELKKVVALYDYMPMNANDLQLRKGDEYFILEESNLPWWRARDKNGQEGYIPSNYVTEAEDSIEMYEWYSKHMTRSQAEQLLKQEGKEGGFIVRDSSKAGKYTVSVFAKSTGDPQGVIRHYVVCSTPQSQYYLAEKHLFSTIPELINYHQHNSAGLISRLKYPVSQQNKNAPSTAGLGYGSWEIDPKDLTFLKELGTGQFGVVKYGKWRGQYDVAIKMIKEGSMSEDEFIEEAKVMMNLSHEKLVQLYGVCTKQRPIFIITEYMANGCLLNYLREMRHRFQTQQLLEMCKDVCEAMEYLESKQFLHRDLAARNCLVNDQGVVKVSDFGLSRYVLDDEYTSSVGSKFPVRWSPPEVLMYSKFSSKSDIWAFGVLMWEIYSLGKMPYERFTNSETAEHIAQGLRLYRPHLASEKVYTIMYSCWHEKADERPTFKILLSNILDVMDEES
T1 sequence (Q06187 whole entry): as above

Row | EC50 [1] | IC50 (activated BTK enzyme) | SMILES
1 | 10 to 100 nM | < 10 nM | C=CC(=O)N1CCC[C@@H](Nc2nc(Nc3ccc4c(c3)CNC4)ncc2F)C1 [Compound I-1, (R)-1-(3-((5-fluoro-2-(isoindolin-5-ylamino)pyrimidin-4-yl)amino)piperidin-1-yl)prop-2-en-1-one]
2 | < 10 nM | < 10 nM | C=CC(=O)N1CCC[C@@H](Nc2nc(Nc3ccc4c(c3)CN(C)C4)ncc2F)C1 [Compound I-2, (R)-1-(3-((5-Fluoro-2-((2-methylisoindolin-5-yl)amino)pyrimidin-4-yl)amino)piperidin-1-yl)prop-2-en-1-one]
3 | 101 to 1000 nM | < 10 nM | C=CC(=O)N1CCC[C@@H](Nc2nc(Nc3ccc4c(c3)CN(C(C)=O)C4)ncc2F)C1 [Compound I-3, (R)-1-(3-((2-((2-Acetylisoindolin-5-yl)amino)-5-fluoropyrimidin-4-yl)amino)-piperidin-1-yl)prop-2-en-1-one]
4 | 10 to 100 nM | < 10 nM | C=CC(=O)N1CCC[C@@H](Nc2nc(Nc3ccc4c(c3)CN(CCOC)C4)ncc2F)C1 [Compound I-4, (R)-1-(3-((5-Fluoro-2-((2-(2-methoxyethyl)isoindolin-5-yl)amino)pyrimidin-4-yl)amino)piperidin-1-yl)prop-2-en-1-one]
5 | 101 to 1000 nM | < 10 nM | C=CC(=O)N1CCC[C@@H](Nc2nc(Nc3ccc4c(c3)CN(C3CCNCC3)C4)ncc2F)C1 [Compound I-5, (R)-1-(3-((5-fluoro-2-((2-(piperidin-4-yl)isoindolin-5-yl)amino)pyrimidin-4-yl)amino)piperidin-1-yl)prop-2-en-1-one]
6 | 101 to 1000 nM | < 10 nM | C=CC(=O)N1CCC[C@@H](Nc2nc(Nc3ccc4c(c3)CN(CC3CCNCC3)C4)ncc2F)C1 [Compound I-6, (R)-1-(3-((5-Fluoro-2-((2-(piperidin-4-ylmethyl)isoindolin-5-yl)amino)pyrimidin-4-yl)amino)piperidin-1-yl)prop-2-en-1-one]
7 | 10 to 100 nM | < 10 nM | C=CC(=O)N1CCC[C@@H](Nc2nc(Nc3ccc4c(c3)CN(C3CCN(C)CC3)C4)ncc2F)C1 [Compound I-7, (R)-1-(3-((5-Fluoro-2-((2-(1-methylpiperidin-4-yl)isoindolin-5-yl)amino)-pyrimidin-4-yl)amino)piperidin-1-yl)prop-2-en-1-one]
8 | < 10 nM | < 10 nM | C=CC(=O)N1CCC[C@@H](Nc2nc(Nc3ccc4c(c3)CN(CC3CCN(C)CC3)C4)ncc2F)C1 [Compound I-8]
9 | 10 to 100 nM | < 10 nM | C=CC(=O)N1CCC[C@@H](Nc2nc(Nc3ccc4c(c3)CN(C3CCN(C(C)=O)CC3)C4)ncc2F)C1 [Compound I-9, (R)-1-(3-(2-(2-(1-Acetylpiperidin-4-yl)isoindolin-5-ylamino)-5-fluoropyrimidin-4-ylamino)piperidin-1-yl)prop-2-en-1-one]
10 | 10 to 100 nM | < 10 nM | C=CC(=O)N1CCC[C@@H](Nc2nc(Nc3ccc4c(c3)CN(CC3CCN(C(C)=O)CC3)C4)ncc2F)C1 [Compound I-10]
11 | < 10 nM | < 10 nM | C=CC(=O)N1CCC[C@@H](Nc2nc(Nc3ccc4c(c3)CN(CC3CCOCC3)C4)ncc2F)C1 [Compound I-11, (R)-1-(3-(5-Fluoro-2-(2-((tetrahydro-2H-pyran-4-yl)methyl)isoindolin-5-ylamino)pyrimidin-4-ylamino)piperidin-1-yl)prop-2-en-1-one]
12 | 10 to 100 nM | < 10 nM | C=CC(=O)N1CCC[C@@H](Nc2nc(Nc3ccc4c(c3)CN(C3CCOCC3)C4)ncc2F)C1 [Compound I-12, (R)-1-(3-((5-Fluoro-2-((2-(tetrahydro-2H-pyran-4-yl)isoindolin-5-yl)amino)-pyrimidin-4-yl)amino)piperidin-1-yl)prop-2-en-1-one]
13 | 10 to 100 nM | < 10 nM | C=CC(=O)N1CCC[C@@H](Nc2nc(Nc3ccc4c(c3)CN(C3COC3)C4)ncc2F)C1 [Compound I-13, (R)-1-(3-((5-Fluoro-2-((2-(oxetan-3-yl)isoindolin-5-yl)amino)pyrimidin-4-yl)amino)piperidin-1-yl)prop-2-en-1-one]
14 | 10 to 100 nM | < 10 nM | C=CC(=O)N1CCC[C@@H](Nc2nc(Nc3ccc4c(c3)CN(CC(C)(C)C)C4)ncc2F)C1 [Compound I-14, (R)-1-(3-((5-Fluoro-2-((2-neopentylisoindolin-5-yl)amino)pyrimidin-4-yl)amino)piperidin-1-yl)prop-2-en-1-one]
15 | 10 to 100 nM | < 10 nM | C=CC(=O)N1CCC[C@@H](Nc2nc(Nc3ccc4c(c3)CN(CC3COC3)C4)ncc2F)C1 [Compound I-15, (R)-1-(3-((5-Fluoro-2-((2-(oxetan-3-ylmethyl)isoindolin-5-yl)amino)pyrimidin-4-yl)amino)piperidin-1-yl)prop-2-en-1-one]
16 | < 10 nM | < 10 nM | C=CC(=O)N1CCC[C@@H](Nc2nc(Nc3ccc4c(c3)CN(CC(N)=O)C4)ncc2F)C1 [Compound I-16]
17 | < 10 nM | < 10 nM | C=CC(=O)N1CCC[C@@H](Nc2nc(Nc3ccc4c(c3)CN(C(C)C)C4)ncc2F)C1 [Compound I-17, (R)-1-(3-((5-Fluoro-2-((2-isopropylisoindolin-5-yl)amino)pyrimidin-4-yl)amino)piperidin-1-yl)prop-2-en-1-one]
18 | < 10 nM | < 10 nM | C=CC(=O)N1CCC[C@@H](Nc2nc(Nc3ccc4c(c3)CN(C3CCC3)C4)ncc2F)C1 [Compound I-18, (R)-1-(3-((2-((2-Cyclobutylisoindolin-5-yl)amino)-5-fluoropyrimidin-4-yl)amino)piperidin-1-yl)prop-2-en-1-one]
19 | < 10 nM | < 10 nM | C=CC(=O)N1CCC[C@@H](Nc2nc(Nc3ccc4c(c3)CN(CC3CC3)C4)ncc2F)C1 [Compound I-19, (R)-1-(3-((2-((2-(cyclopropylmethyl)isoindolin-5-yl)amino)-5-fluoropyrimidin-4-yl)amino)piperidin-1-yl)prop-2-en-1-one]
20 | < 10 nM | < 10 nM | [2H]C([2H])([2H])N1Cc2ccc(Nc3ncc(F)c(N[C@@H]4CCCN(C(=O)C=C)C4)n3)cc2C1 [Compound I-20, (R)-1-(3-((5-Fluoro-2-((2-deuteromethylisoindolin-5-yl)amino)pyrimidin-4-yl)amino)piperidin-1-yl)prop-2-en-1-one]
21 | 10 to 100 nM | < 10 nM | C=CC(=O)N1CCC[C@@H](Nc2nc(Nc3ccc4c(c3)CN(C3CC3)C4)ncc2F)C1 [Compound I-21, (R)-1-(3-((2-((2-cyclopropylisoindolin-5-yl)amino)-5-fluoropyrimidin-4-yl)amino)piperidin-1-yl)prop-2-en-1-one]
22 | – | 101 to 1000 nM | C=CC(=O)N1CC2CC(Nc3nc(Nc4ccc5c(c4)CN(C)C5)ncc3F)C1C2 (stereo not shown) [Compound I-66, 1-(6-((5-fluoro-2-((2-methylisoindolin-5-yl)amino)pyrimidin-4-yl)amino)-2-azabicyclo[2.2.1]heptan-2-yl)prop-2-en-1-one]
